Bounds are passed on as bounds.

We go through 21 compounds from ChEMBL document CHEMBL1914289, “Discovery of novel Cobactin-T based matrix metalloproteinase inhibitors via a ring closing metathesis strategy” (Bioorg Med Chem Lett, 2011).

Data set [1] concerns the target Matrix metalloproteinase-9 (Homo sapiens, UniProt P14780). Description: Inhibition of human MMP9 catalytic domain (amino acids 107 to 446) using acetyl-Cys(Eu)-Pro-Leu-Gly-Leu-Lys-(QSY7)-Ala-Arg-amide as substrate preincubated for 1 hrs before substrate addition measured after 15 mins by fluorimetry.
Data set [2] deals with 72 kDa type IV collagenase (Homo sapiens, UniProt P08253). Description: Inhibition of full length human MMP2 (amino acids 1 to 660) using acetyl-Cys(Eu)-Pro-Leu-Gly-Leu-Lys-(QSY7)-Ala-Arg-amide as substrate preincubated for 1 hrs before substrate addition measured after 15 mins by fluorimetry.
Data set [3] addresses MMP-2/MMP-9 (Homo sapiens) (UniProt P08253+P14780). Description: Selectivity ratio of IC50 for full length human MMP2 (amino acids 1 to 660) to IC50 for human MMP9 catalytic domain (amino acids 107 to 446).
The species entered for data set [4] is Homo sapiens. Description: Selectivity ratio of IC50 for human MMP3 catalytic domain (amino acids 100 to 265) to IC50 for full length human MMP2 (amino acids 1 to 660).
The species entered for data set [5] is Homo sapiens. The data set is described as follows: Selectivity ratio of IC50 for human MMP3 catalytic domain (amino acids 100 to 265) to IC50 for human MMP9 catalytic domain (amino acids 107 to 446).
The target in the next data set is T1, Interstitial collagenase (Homo sapiens, UniProt P03956).
T1 sequence (P03956 whole entry): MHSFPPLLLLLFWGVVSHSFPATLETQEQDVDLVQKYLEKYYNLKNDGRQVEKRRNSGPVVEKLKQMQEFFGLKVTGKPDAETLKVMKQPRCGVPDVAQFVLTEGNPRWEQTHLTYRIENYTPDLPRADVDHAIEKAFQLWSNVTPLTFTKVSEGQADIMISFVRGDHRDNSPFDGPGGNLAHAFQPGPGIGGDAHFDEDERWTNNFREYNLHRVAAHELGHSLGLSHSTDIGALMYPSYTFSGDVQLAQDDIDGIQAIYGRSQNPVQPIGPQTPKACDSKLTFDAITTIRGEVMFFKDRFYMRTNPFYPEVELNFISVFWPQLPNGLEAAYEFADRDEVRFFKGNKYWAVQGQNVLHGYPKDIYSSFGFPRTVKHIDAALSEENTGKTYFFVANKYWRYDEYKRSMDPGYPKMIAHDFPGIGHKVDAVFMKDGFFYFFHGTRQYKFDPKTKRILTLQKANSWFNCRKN
Description: Inhibition of human MMP1 catalytic domain (amino acids 100 to 262) using acetyl-Cys(Eu)-Pro-Leu-Gly-Leu-Lys-(QSY7)-Ala-Arg-amide as substrate preincubated for 1 hrs before substrate addition measured after 15 mins by fluorimetry.

The target in the next data set is Collagenase 3 (Homo sapiens, UniProt P45452). Description: Inhibition of human MMP13 catalytic domain (amino acids 103 to 268) using acetyl-Cys(Eu)-Pro-Leu-Gly-Leu-Lys-(QSY7)-Ala-Arg-amide as substrate preincubated for 1 hrs before substrate addition measured after 15 mins by fluorimetry.
The target of another data set is Stromelysin-1 (Homo sapiens, UniProt P08254). The data set is described as follows: Inhibition of human MMP3 catalytic domain (amino acids 100 to 265) using acetyl-Cys(Eu)-Pro-Leu-Gly-Leu-Lys-(QSY7)-Ala-Arg-amide as substrate preincubated for 1 hrs before substrate addition measured after 15 mins by fluorimetry.
For a further data set, the target named is CYP2D6 (Homo sapiens, UniProt P10635). The data set is described as follows: Inhibition of CYP 2D6 at 1 uM. The class given is ADME.
A short description of data set [6]: Cmax in rat at 0.5 mg/kg, iv. It counts as ADME, organism-based. Further details: dose 0.5 mg/kg, route intravenous. The conditions noted are these: in vivo.
A short description of data set [7]: Half life in rat at 0.5 mg/kg, iv. The class given is ADME, organism-based. Also noted: dose 0.5 mg/kg, route intravenous. The conditions noted are these: in vivo.
The test system of a further data set is Salmonella typhimurium. Description: Induction of mutagenicity in Salmonella Typhimurium by AMES test. It counts as toxicity, organism-based. The conditions noted are these: salmonella enterica subsp. enterica serovar typhimurium.
A short description of data set [8]: Volume of distribution at steady state in rat at 0.5 mg/kg, iv. The class given is ADME, organism-based. Also noted: dose 0.5 mg/kg, route intravenous. The conditions noted are these: in vivo, read-out: Vdss.
Data set [9] addresses Voltage-gated inwardly rectifying potassium channel KCNH2 (Homo sapiens, UniProt Q12809). Description: Binding affinity to human Erg at 10 uM.
The nature of data set [10]: (§1) AUC in rat at 0.5 mg/kg, iv. It counts as ADME, organism-based, Plasma. Further details: dose 0.5 mg/kg, route intravenous. The conditions noted are these: plasma.
The target in another data set is CYP3A4 (Homo sapiens, UniProt P08684). Description: Inhibition of CYP 3A4 at 1 uM. The class given is ADME.
Data set [11] is described as follows: Clearance in rat at 0.5 mg/kg, iv. Further details: dose 0.5 mg/kg, route intravenous. The class given is ADME, organism-based. The conditions noted are these: in vivo.
The nature of data set [12]: Half life in mouse at 10 mg/kg, po. The conditions noted are these: in vivo. Also noted: dose 10 mg/kg, route oral. The class given is ADME, organism-based.
The nature of data set [13]: Cmax in mouse at 10 mg/kg, po. The class given is ADME, organism-based. Further details: dose 10 mg/kg, route oral. The conditions noted are these: in vivo.
Another data set has as its system Rattus norvegicus. The data set is described as §1. The class given is ADME, organism-based, Plasma. Further details: dose 0.5 mg/kg, route intravenous. The conditions noted are these: in vivo.

Chain of Matrix metalloproteinase-9 (P14780 whole entry, the tested form may be a part): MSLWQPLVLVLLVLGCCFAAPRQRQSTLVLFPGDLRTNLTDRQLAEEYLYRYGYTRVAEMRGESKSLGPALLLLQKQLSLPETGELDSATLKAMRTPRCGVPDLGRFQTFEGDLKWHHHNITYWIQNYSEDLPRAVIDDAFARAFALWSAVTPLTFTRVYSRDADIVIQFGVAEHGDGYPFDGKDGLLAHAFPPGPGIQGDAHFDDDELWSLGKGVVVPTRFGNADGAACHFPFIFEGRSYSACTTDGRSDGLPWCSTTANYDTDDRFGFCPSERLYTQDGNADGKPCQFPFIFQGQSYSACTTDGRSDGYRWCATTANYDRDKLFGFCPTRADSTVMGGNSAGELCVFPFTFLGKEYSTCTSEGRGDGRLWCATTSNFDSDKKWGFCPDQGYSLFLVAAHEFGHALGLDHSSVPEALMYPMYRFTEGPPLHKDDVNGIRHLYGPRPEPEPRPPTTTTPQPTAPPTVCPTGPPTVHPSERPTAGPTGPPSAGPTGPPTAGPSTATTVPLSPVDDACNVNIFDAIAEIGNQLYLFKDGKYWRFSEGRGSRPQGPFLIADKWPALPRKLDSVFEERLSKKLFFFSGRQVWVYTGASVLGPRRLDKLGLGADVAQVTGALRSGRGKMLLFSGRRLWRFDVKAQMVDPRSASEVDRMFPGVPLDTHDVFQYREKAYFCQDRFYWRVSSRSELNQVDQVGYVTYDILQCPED
Chain of Stromelysin-1 (P08254 whole entry, the tested form may be a part): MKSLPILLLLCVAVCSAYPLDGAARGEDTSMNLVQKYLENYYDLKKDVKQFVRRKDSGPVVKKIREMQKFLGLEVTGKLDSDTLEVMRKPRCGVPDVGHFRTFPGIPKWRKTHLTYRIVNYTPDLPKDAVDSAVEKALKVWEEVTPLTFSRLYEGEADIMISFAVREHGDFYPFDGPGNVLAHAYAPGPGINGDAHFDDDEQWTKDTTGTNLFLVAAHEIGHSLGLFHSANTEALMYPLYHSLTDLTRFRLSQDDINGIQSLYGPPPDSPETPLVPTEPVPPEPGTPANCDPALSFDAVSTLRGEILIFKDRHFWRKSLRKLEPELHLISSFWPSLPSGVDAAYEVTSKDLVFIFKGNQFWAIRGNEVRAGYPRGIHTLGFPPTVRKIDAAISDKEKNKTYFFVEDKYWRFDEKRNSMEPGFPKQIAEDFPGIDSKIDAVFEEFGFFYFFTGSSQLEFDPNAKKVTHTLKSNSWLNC
Chain of 72 kDa type IV collagenase (P08253 whole entry, the tested form may be a part): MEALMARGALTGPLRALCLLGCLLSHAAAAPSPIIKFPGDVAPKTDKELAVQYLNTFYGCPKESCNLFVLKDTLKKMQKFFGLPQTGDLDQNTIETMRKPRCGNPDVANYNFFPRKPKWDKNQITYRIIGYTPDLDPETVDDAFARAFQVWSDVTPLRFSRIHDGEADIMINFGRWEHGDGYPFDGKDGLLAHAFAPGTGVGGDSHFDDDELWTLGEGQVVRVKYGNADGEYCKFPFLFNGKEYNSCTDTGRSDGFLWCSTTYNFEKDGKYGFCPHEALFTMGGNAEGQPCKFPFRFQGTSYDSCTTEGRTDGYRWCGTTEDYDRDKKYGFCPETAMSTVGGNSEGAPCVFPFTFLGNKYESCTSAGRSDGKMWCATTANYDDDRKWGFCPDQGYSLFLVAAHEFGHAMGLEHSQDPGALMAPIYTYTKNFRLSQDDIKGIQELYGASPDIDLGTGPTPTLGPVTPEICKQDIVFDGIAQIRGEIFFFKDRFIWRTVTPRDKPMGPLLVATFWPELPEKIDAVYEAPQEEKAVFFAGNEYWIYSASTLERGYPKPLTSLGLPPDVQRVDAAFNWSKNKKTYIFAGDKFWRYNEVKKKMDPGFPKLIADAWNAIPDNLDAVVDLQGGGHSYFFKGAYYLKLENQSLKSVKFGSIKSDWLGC
Chain of CYP3A4 (P08684 whole entry): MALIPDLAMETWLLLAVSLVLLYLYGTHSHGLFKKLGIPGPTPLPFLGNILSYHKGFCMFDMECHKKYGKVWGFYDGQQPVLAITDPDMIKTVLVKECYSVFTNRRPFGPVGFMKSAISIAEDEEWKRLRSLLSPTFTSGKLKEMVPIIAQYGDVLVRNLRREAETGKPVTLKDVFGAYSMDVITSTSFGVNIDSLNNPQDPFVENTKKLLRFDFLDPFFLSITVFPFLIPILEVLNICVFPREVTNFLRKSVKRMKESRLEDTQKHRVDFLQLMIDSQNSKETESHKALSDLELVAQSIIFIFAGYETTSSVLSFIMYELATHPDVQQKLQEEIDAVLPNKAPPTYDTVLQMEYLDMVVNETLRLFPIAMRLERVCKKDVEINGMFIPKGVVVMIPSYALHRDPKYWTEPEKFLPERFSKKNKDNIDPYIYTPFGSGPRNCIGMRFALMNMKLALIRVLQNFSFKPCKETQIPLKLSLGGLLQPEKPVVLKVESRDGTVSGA
Chain of CYP2D6 (P10635 whole entry): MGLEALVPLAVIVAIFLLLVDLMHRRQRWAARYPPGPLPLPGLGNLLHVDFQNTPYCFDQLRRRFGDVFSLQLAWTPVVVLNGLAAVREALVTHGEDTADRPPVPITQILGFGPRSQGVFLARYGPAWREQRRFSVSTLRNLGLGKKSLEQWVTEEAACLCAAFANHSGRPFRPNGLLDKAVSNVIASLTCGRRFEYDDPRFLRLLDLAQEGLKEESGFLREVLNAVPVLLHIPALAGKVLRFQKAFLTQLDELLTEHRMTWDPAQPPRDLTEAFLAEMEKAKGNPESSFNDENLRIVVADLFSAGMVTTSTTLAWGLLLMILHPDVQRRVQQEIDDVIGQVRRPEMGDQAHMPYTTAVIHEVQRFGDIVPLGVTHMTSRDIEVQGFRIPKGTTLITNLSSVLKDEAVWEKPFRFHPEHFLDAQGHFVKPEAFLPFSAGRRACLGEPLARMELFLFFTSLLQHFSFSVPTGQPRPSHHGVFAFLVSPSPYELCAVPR
Chain of Voltage-gated inwardly rectifying potassium channel KCNH2 (Q12809 whole entry): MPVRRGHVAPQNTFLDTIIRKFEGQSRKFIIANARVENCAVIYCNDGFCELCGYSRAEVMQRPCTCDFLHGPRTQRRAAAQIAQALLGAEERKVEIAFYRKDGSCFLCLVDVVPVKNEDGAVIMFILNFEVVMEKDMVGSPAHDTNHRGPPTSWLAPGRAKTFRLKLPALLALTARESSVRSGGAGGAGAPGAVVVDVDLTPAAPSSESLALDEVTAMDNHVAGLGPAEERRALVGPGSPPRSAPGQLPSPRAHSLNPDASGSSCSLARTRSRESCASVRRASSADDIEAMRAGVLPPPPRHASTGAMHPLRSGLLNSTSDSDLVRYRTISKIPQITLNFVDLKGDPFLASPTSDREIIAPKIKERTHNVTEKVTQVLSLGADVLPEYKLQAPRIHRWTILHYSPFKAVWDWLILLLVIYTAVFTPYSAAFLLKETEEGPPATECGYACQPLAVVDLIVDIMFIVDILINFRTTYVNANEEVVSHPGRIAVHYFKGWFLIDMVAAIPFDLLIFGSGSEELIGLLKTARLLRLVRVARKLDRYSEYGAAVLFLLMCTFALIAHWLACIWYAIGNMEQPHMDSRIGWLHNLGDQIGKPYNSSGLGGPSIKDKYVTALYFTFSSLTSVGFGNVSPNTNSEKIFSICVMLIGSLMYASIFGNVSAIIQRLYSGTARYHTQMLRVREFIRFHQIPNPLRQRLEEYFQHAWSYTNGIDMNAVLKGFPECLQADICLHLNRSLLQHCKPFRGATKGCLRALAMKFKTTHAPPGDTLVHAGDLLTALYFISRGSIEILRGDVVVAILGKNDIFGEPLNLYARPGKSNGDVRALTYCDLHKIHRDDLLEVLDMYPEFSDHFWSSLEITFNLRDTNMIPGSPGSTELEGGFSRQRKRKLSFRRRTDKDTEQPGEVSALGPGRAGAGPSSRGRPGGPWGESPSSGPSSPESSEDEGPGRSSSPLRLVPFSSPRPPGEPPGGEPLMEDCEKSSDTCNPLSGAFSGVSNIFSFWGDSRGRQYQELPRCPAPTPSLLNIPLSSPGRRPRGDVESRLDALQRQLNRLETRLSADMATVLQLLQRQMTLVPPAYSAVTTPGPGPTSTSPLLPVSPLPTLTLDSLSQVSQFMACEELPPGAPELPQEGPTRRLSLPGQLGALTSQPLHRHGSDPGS

The IC50 is the concentration that gives 50% inhibition. Low values mean greater potency, high ones weaker potency. Consider `O=C1[C@H](N(CCN2CCOCC2)S(=O)(=O)c2ccc(-c3ccc(Cl)cc3)s2)CC=CCN1O`, for which the 50% inhibitory concentration (IC50) in [1] turned out to be 17 nM; in data set [2], 16 nM.
Taken in the same sequence, the figures for `O=C1[C@@H](NS(=O)(=O)c2ccc(Oc3ccc(Cl)cc3)cc2)CC=CCN1O` were 1120 nM and 1600 nM.
Regarding `Cc1ccc(C#Cc2ccc(S(=O)(=O)N(CCN3CCOCC3)[C@@H]3CC=CCN(O)C3=O)s2)cc1`, the Ratio IC50 in data set [3] worked out at 2. In addition, the IC50 in data set [1] was found to be 0.8 nM; in [2], 2.4 nM.
For the compound `O=C1[C@H](NS(=O)(=O)c2ccc(Oc3ccc(Cl)cc3)cc2)CCCCN1O`, the IC50 in data set [1] came out at 5.9 nM; in data set [2], 3.7 nM.
Consider `COc1ccc(-c2ccc(S(=O)(=O)N[C@@H]3CC=CCN(O)C3=O)s2)cc1`, for which the Ratio IC50 in the data set listed under Homo sapiens [4] and in the data set listed under Homo sapiens [5] was 100 in each case. For the same compound, the IC50 in [1] was 11 nM; at Interstitial collagenase, more than 1000 nM; against Collagenase 3 it was 3 nM; on Stromelysin-1, 493 nM.
As to `O=C1[C@H](NS(=O)(=O)c2ccc(Oc3ccc(C(F)(F)F)cc3)cc2)CC=CCN1O`, the IC50 in [1] and in data set [2] was 2 nM in each case.
As to `COc1ccc(Oc2ccc(S(=O)(=O)N[C@@H]3CC=CCN(O)C3=O)cc2)cc1`, the IC50 in [1] came to 1 nM; in [2], 2 nM.
What is called inhibition is the change of the read-out against control, counted positive when it falls. Low values mean little suppression, high ones strong suppression. As a reminder, the Cmax is the maximum level reached in the sampled fluid or tissue. Broadly, the half-life is the time in which the quantity being followed falls by half. Usually AUC stands for concentration integrated over time. A higher AUC goes with high exposure. By clearance is commonly meant a measure of how efficiently the substance is removed, as volume per time. Lower therefore signals a low capacity for elimination. As to `O=C1[C@H](NS(=O)(=O)c2ccc(Oc3ccc(Cl)cc3)cc2)CC=CCN1O`, the inhibition at 1 µM against CYP2D6 and against CYP3A4 was less than 50% in each case. The Ratio IC50 in the data set filed under Homo sapiens [4] and in the data set filed under Homo sapiens [5] was 100 throughout. For the same compound, the highest level in [6] (Cmax) was 4.6 µM. Moreover, the concentration for half-maximal inhibition (IC50) is 0.58 nM in [1]; 0.57 nM in data set [2]; more than 1000 nM against Interstitial collagenase; 0.4 nM on Collagenase 3; 86 nM on Stromelysin-1. Further, the half-life in [7] was 14 h. The values for the Activity result (in the data set with Salmonella typhimurium; in data set [9]) were “Non-toxic” and less than 50%, respectively. Further, the Vd in data set [8] worked out at 3.3 L/kg. The AUC in data set [10] stood at 1230 ng·h/mL. The compound also returned a clearance in data set [11] of 7 mL/min/kg.
For the compound `O=C1[C@H](N(CCN2CCCCC2)S(=O)(=O)c2ccc(Oc3ccc(Cl)cc3)cc2)CC=CCN1O`, in [3], the Ratio IC50 stood at 2.
Turning to `CC1=CC[C@@H](NS(=O)(=O)c2ccc(Oc3ccc(Cl)cc3)cc2)C(=O)N(O)C1`, the values for the IC50 in [1] and in data set [2] were 1.3 nM and 2 nM, respectively.
Taken in the same sequence, the figures for `O=C1[C@H](NS(=O)(=O)c2ccc(Oc3ccccc3)cc2)CC=CCN1O` were 2 nM and 1 nM.
Taken in the same sequence, the figures for `Cc1ccc(-c2ccc(S(=O)(=O)N(CCN3CCOCC3)[C@@H]3CC=CCN(O)C3=O)s2)cc1` were 11 nM and 7 nM.
Taken in the same sequence, the figures for `Cc1ccc(-c2ccc(S(=O)(=O)N[C@@H]3CC=CCN(O)C3=O)s2)cc1` were 9 nM and 4 nM.
Take `CN1CCN(CCN([C@@H]2CC=CCN(O)C2=O)S(=O)(=O)c2ccc(Oc3ccc(Cl)cc3)cc2)CC1`: the Ratio IC50 in data set [3] stood at 2.
Regarding `O=C1[C@H](NS(=O)(=O)c2ccc(-c3ccc(Cl)cc3)cc2)CC=CCN1O`, the IC50 in data set [1] came out at 1510 nM; in data set [2], 85 nM.
Taken in the same sequence, the figures for `O=C1[C@H](NS(=O)(=O)c2ccc(Oc3ccncc3)cc2)CC=CCN1O` were 12 nM and 3 nM.
Taken in the same sequence, the figures for `O=C(N[C@@H]1CC=CCN(O)C1=O)c1ccc(Oc2ccc(Cl)cc2)cc1` were 5090 nM and 2320 nM.
Consider `O=C1[C@H](NS(=O)(=O)c2ccc(Oc3ccc(Cl)cc3)cc2)CC=C(CN2CCOCC2)CN1O`, for which the Ratio IC50 in the data set listed under Homo sapiens [4] and in the data set listed under Homo sapiens [5] was 100 each time. The half-maximal inhibitory concentration (IC50) in data set [1] was 0.46 nM; in data set [2], 0.53 nM; at Interstitial collagenase it was more than 1000 nM; against Collagenase 3, 0.2 nM; on Stromelysin-1 it was 39 nM.
On to `O=C1NCC=CC[C@H]1NS(=O)(=O)c1ccc(Oc2ccc(Cl)cc2)cc1`, for which the half-maximal inhibitory concentration (IC50) in data set [1] and in data set [2] was more than 1000 nM in each case.
With `O=C1[C@H](NS(=O)(=O)c2ccc(-c3ccc(Cl)cc3)s2)CC=CCN1O`, the half-maximal inhibitory concentration (IC50) in [1] came out at 16 nM; in data set [2] it was 11 nM.
For `O=C1[C@H](N(CCN2CCOCC2)S(=O)(=O)c2ccc(Oc3ccc(Cl)cc3)cc2)CC=CCN1O`, the results for the half-life in [12] and in [7] were 1 h and 2 h, respectively. Moreover, the inhibition at 1 µM against CYP2D6 and against CYP3A4 was less than 50% each time. The Ratio IC50 was found to be 100 in the data set filed under Homo sapiens [4], 2 in data set [3] and 100 in the data set listed under Homo sapiens [5]. For the same compound, the highest concentration (Cmax) in [6] was found to be 4.4 µM; in data set [13] it was 38.3 µM. Besides, the IC50 in data set [1] was 0.22 nM; in data set [2], 0.39 nM; at Interstitial collagenase, more than 1000 nM; on Collagenase 3, 0.7 nM; on Stromelysin-1, 90 nM. In addition, the Activity result with Salmonella typhimurium is “Non-toxic”; in data set [9] it was less than 50%. In addition, the Vd in data set [8] stood at 1.4 L/kg. In the data set with Rattus norvegicus, this compound returned an exposure (AUC) of 1831 ng·h/mL.
